Test results taken from US10351522B2, “Sulfonamide derivative and pharmaceutically acceptable acid addition salt thereof” (UNIVERSITY OF TSUKUBA, priority 2015, dated 2019).

Tests used:
human OX1R = target: T1, human OX1R (Homo sapiens, UniProt O43613); assay: Agonist activity against OX1R: intracellular calcium (Fura-2AM, FDSS7000) in CHOOX1R cells; type: cell-based; conditions: relative to orexin-A as full agonist (100%); for Emax at 0.1 µM / Emax at 1 µM / Emax at 10 µM: read-out: Response (%) OX1R
T1 construct: expressed in transfected cells; host or cells: CHO (Chinese hamster ovary) cells, line CHOOX1R, co-expressing NFAT-luciferase
T1 sequence (O43613 1-425): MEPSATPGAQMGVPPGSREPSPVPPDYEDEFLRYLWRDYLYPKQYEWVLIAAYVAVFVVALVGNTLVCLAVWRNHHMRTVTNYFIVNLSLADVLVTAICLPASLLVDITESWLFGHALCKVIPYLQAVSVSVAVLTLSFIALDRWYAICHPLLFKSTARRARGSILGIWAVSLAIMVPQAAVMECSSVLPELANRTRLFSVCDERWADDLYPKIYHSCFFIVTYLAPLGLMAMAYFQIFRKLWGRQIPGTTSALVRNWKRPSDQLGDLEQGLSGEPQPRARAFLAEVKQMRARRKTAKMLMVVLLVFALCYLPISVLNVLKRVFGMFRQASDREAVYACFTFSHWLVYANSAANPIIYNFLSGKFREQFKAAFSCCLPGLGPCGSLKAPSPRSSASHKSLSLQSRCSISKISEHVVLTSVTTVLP
Protocol: (§1) Evaluation of Agonist Activity Against OX1R and OX2R
(§2) NAFT-luciferase gene and human OX1R gene were constitutively expressed in CHO cell, which is a cell line derived from Chinese hamster ovary to establish a cell line (CHOOX1R) and NAFT-luciferase gene and human OX2R gene were constitutively expressed in CHO cell to establish a cell line (CHOOX2R). The respective cells were seeded in a 96-well Multiplate at 10,000 cells/well and cultured in a 5% FBS (Thermo Scientific)-added DMEM medium (Sigma-Aldrich) for 48 hr. The medium was removed, an assay buffer (20 mM HEPES (Sigma-Aldrich), Hanks' balanced salt solution (Gibco), 0.1% BSA (Sigma-Aldrich), 2.5 mM probenecid acid (Wako Pure Chemical Industries, Ltd.)) (100 μL) containing 5 μM Fura-2AM (Cayman Chemical) was added, and the cells were incubated for 60 min. The buffer containing Fura-2AM was removed, and an assay buffer (75 μL) was added. An assay buffer (25 μL) containing a test compound was added thereto to start the reaction. Changes in the intracellular calcium ion concentration due to the reaction were measured by measuring the fluorescence intensity ratio by dual wavelength excitation at 340 and 380 nm, by using FDSS7000 (Hamamatsu Photonics K.K.). The test compound was dissolved in DMSO to 10 mM, and diluted with the assay buffer to a final concentration of 10^−7M to 10^−5M (final concentration of DMSO 1%).
(§3) (As used herein, Response in Table 21 to Table 27 is a value obtained by dividing the agonist activity value, when the test compound is evaluated with orexin-A as a full-agonist (maximum value of agonist activity: 100%), at 10 μM, 1.0 μM, 0.1 μM by the agonist activity value of orexin-A.)

human OX2R = target: T2, human OX2R (Homo sapiens, UniProt O43614); assay: Agonist activity against OX2R: intracellular calcium (Fura-2AM, FDSS7000) in CHOOX2R cells; type: cell-based; conditions: relative to orexin-A as full agonist (100%)
T2 construct: expressed in transfected cells; host or cells: CHO (Chinese hamster ovary) cells, line CHOOX2R, co-expressing NFAT-luciferase
T2 sequence (O43614 1-444): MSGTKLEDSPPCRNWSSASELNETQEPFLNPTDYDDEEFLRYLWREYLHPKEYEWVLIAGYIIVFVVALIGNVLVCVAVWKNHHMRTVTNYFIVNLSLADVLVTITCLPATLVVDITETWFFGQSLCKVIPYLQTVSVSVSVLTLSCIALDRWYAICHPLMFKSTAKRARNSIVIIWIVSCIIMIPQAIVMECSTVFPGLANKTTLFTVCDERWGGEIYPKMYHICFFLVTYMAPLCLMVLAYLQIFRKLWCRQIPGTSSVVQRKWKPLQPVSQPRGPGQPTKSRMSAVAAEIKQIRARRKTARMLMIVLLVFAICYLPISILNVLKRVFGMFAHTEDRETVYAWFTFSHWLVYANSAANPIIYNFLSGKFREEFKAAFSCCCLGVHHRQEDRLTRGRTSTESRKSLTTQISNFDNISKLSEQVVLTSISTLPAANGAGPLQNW
Protocol: as §1, §2, §3

SMILES | Response (%) OX1R (human OX1R; 0.1 μM test compound) [%] | Response (%) OX1R (human OX1R; 1.0 μM test compound) [%] | Response (%) OX1R (human OX1R; 10 μM test compound) [%] | Response (%) OX2R (human OX2R; 0.1 μM test compound) [%] | Response (%) OX2R (human OX2R; 1.0 μM test compound) [%] | Response (%) OX2R (human OX2R; 10 μM test compound) [%] | Response (%) OX1R (human OX1R; test compound 0.1 μM) [%] | Response (%) OX1R (human OX1R; test compound 1.0 μM) [%] | Response (%) OX1R (human OX1R; test compound 10 μM) [%] | Response (%) OX2R (human OX2R; test compound 0.1 μM) [%] | Response (%) OX2R (human OX2R; test compound 1.0 μM) [%] | Response (%) OX2R (human OX2R; test compound 10 μM) [%] | Emax at 0.1 µM (human OX1R; test compound 0.1 μM) [%] | Emax at 1 µM (human OX1R; test compound 1.0 μM) [%] | Emax at 10 µM (human OX1R; test compound 10 μM) [%]
COc1ccc(-c2cccc(C(=O)N(C)C)c2)cc1S(=O)(=O)Nc1cccc(NC(=N)Nc2cccc(C)c2)c1 [Example 78] | <5 | <5 | 14 | 23 | 89 | 86 |  |  |  |  |  |  |  |  | 
COc1ccc(C(=O)NCC(C)(C)CN(C)C)cc1S(=O)(=O)Nc1cccc(NC(=O)Nc2cccc(N(C)C)c2)c1 [Example 107] |  |  |  |  |  |  | <5 | <5 | <5 | 7 | 9 | 80 |  |  | 
COc1ccc(-c2cccc(C(=O)N(C)C)c2)cc1S(=O)(=O)Nc1cccc(NC(=O)Nc2ccccc2[N+](=O)[O-])c1 [Example 46] | <5 | <5 | 8 | 74 | 101 | 115 |  |  |  |  |  |  |  |  | 
COc1ccc(-c2cccc(C(=O)N(C)C)c2)cc1S(=O)(=O)Nc1cccc(NCC(=O)NCc2cccc(C)c2)c1 [Example 92, 4′-methoxy-N,N-dimethyl-3′-(N-(3-((2-((3-methylbenzyl)amino)-2-oxoethyl)amino)phenyl)sulfamoyl)-[1,1′-biphenyl]-3-carboxamide] |  |  |  |  |  |  |  |  |  | 35 | 95 | 95 | < 5 | 6 | 30
COc1ccc(-c2cccc(C(=O)N(C)C)c2)cc1S(=O)(=O)Nc1cccc(NC(=O)NCc2ccccc2)c1 [Example 66] | 6 | 6 | 7 | 79 | 70 | 60 |  |  |  |  |  |  |  |  | 
COc1ccc(-c2cccc(C(=O)N(C)C)c2)cc1S(=O)(=O)Nc1cccc(NC(=O)Nc2cc([N+](=O)[O-])cc([N+](=O)[O-])c2)c1 [Example 47] | <5 | <5 | <5 | 7 | 81 | 102 |  |  |  |  |  |  |  |  | 
COc1ccc(-c2cccc(C(=O)N(C)C)c2)cc1S(=O)(=O)Nc1cccc(NC(=O)Nc2cccc(N)c2)c1 [Example 63] | 9 | 9 | 7 | 8 | 55 | 66 |  |  |  |  |  |  |  |  | 
COc1ccc(C(=O)NCc2ccccc2)cc1S(=O)(=O)Nc1cccc(NC(=O)Nc2cccc(N(C)C)c2)c1 [Example 100, N-benzyl-3-(N-(3-(3-(3-(dimethylamino)phenyl)ureido)phenyl)sulfamoyl)-4-methoxybenzamide] |  |  |  |  |  |  |  |  |  | <5 | 7 | 49 | < 5 | < 5 | < 5
COc1ccc(-c2cccc(C(=O)N(C)C)c2)cc1S(=O)(=O)Nc1cccc(NC(=O)Nc2cc(OC)c(OC)c(OC)c2)c1 [Example 54] | <5 | <5 | 10 | 91 | 71 | 61 |  |  |  |  |  |  |  |  | 
COc1ccc(-c2cccc(C(=O)N(C)C)c2)cc1S(=O)(=O)Nc1cccc(NC(=O)Nc2ccc(NC(=N)NC(=O)OC(C)(C)C)cc2)c1 [Example 59] | <5 | <5 | <5 | <5 | 18 | 52 |  |  |  |  |  |  |  |  | 
